Test results from EP0753308A2, “Use of lactoferrin for therapy of acute or recurrent infectious diseases by streptococcus pyogenes or other intracellular gram positive pathogen bacteria” (priority 1995, dated 1997).

What was measured:
S. pyogenes 95/1 = test: Invasion assay in HeLa cell monolayers (gentamicin protection, CFU of viable intracellular bacteria); type: cell-based, Streptococcus pyogenes; settings: control 5 x 10^5; for Internalized bacteria (CFU/ml): absence of lactoferrin
Description: (§1) Streptococcus pyogenes strain 95/1 was cultured in Todd-Hewitt broth (Difco lab.). Blood agar was used for counting coloning forming units (C.F.U.). Staphylococcus aureus strain 94/3 was cultured in Brain Hearth Infusion (BHI). Mannitol Salt Agar was used for C.F.U. counts. HeLa S3 human epitelial cells (derived from epithelioid carcinoma of human cervix) were grown as monolayers at 37°C in Eagle's MEM containing 1.2 g/l of NaCo3, 2 mM glutamine, 100 U/ml penicillin, 0.1 mg/ml streptomycin and 10% heat inactivated foetal calf serum in 5% CO2 on 24-well tissue culture clusters (costar) by loading 1 ml of a solution of 1.5x10^5 cells/ml.
(§2) Semiconfluent monolayers of HeLa cells were infected with a bacterial suspension (at a multiplicity of infection of 100 exponentially grown bacteria per cell) deriving from a bacterial subculture after an incubation at 37°C for 120 min in the presence and absence of lactoferrin added at no cytotoxic nor antibacterial concentrations. After the bacterial infection (2 h at 37°C ), the monolayer was five-fold carefully washed with fosfate buffered saline (PBS) and then fresh medium (MEM, Seromed) containing 200 ug/ml of gentamicin was added. This antibiotic is well known for its impossibility to penetrate into the eukaryotic cells and to exert its bactericidal effect only towards the extracellular bacteria (free or adhered to the cells). Alter 2 h incubation period at 37°C in gentamicin, the infected cells were whashed three times with PBS and lysed by the addition of cold 0.1% Triton-X 100.
The cellular lysate was diluited with PBS and plated on selective agar medium in order to determine viable intracellular bacteria.

S. aureus = test: as above; type: cell-based, Staphylococcus aureus; settings: proteins 1 mg/ml; erythromycin 0.02 mg/ml where present; control 7 x 10^5
Description: as §1
as §2, with “Alter 2 h incubation period at 37°C in gentamicin, the infected cells were whashed three times with PBS and lysed by the addition of cold 0.1% Triton-X 100.” left out

Compound	Internalized bacteria (CFU/ml) (S. pyogenes 95/1; bacteria cultured with subinhibiting antibiotic 0.1 ug/ml)	Intracellular bacteria (CFU/ml S. aureus) (S. aureus)	Internalized bacteria (CFU/ml) (S. pyogenes 95/1; bacteria cultured with subinhibiting antibiotic 20 ug/ml)	Intracellular bacteria (CFU/ml S. pyogenes) (S. pyogenes 95/1; proteins 1 mg/ml, erythromycin 0.02 mg/ml where present)
CC1(C)S[C@@H]2[C@H](NC(=O)[C@H](N)c3ccccc3)C(=O)N2[C@H]1C(=O)O [Ampicillin, ampicillin]	2 x 10^5 CFU/ml	–	–	–
CC[C@H]1OC(=O)[C@H](C)[C@@H](O[C@H]2C[C@@](C)(OC)[C@@H](O)[C@H](C)O2)[C@H](C)[C@@H](O[C@@H]2O[C@H](C)C[C@H](N(C)C)[C@H]2O)[C@](C)(O)C[C@@H](C)C(=O)[C@H](C)[C@@H](O)[C@]1(C)O [Erythromycin, erythromycin]	–	3 x 10^5 CFU/ml	2 x 10^5 CFU/ml	2 x 10^5 CFU/ml
